Results: patent US20240239729A1, “Functionalization of Lightly Branched Olefin Oligomers” (priority 2021, published 2024)

Assays:
Type in all cases: physicochemical
[1] = Solubility in water at 25° C. by visual observation; details: 2-3 hours magnetic stirring
Experimental: Solubility measurements were conducted in water at 25° C. Solubility was determined through visual observation after 2-3 hours of magnetic stirring of surfactant solutions having variable concentrations.

[2] = Calcium tolerance (hard water tolerance), surfactant remaining in filtrate by HPLC-ELSD; details: 25° C.; 450 ppm surfactant, 420 ppm cations (3:1 Ca2+:Mg2+), stood overnight, 0.22 μm filtrate
Experimental: Calcium tolerance was measured at 25° C. using the following procedure. A surfactant solution containing 450 ppm of alcohol sulfate surfactant and 420 ppm cations (3:1 Ca^2+:Mg^2+) was prepared and allowed to stand overnight. Crystals formed during this time. The supernatant liquid was removed and passed through a 0.22 μm filter to provide a filtrate. The filtrate was then analyzed for surfactant residue. Analysis of the surfactant and salt residue was performed using an Agilent 1100 HPLC combined with SEDEX 75 evaporative light scattering detector (ELSD) using the run conditions specified in Table 4 below. Peak height was utilized to analyze surfactant concentration. Some samples were repeated in triplicate. Calcium tolerance results are specified in Table 5 below.

[3] = Critical micelle concentration in water (Kruss K100 tensiometer)
Experimental: Critical micelle concentrations in water were measured using an A Kruss Laboratory K100 tensiometer. CMC values were determined using the K100 instrument's fully automated measurement method, as described further in the K100 instrument's operating manual.

For CCCCCCCCCCCCCOS(=O)(=O)[O-].[Na+] [Entry 5, Sodium n-Tridecyl Sulfate], the “Solubility at 25° C., (Wt. %)” value [1] was under 0.5% Wt. %, the “Calcium tolerance (ppm surfactant remaining)” value [2] was 11.2 ppm and the “CMC” value [3] was 0.001 g/g.

In the case of CCCC(C)CCCC(C)CCCOS(=O)(=O)O (stereo not shown) [Entry 8, 4,8-dimethylundecan-1-sulfate], the “CMC” value [3] is reported as 0.00129 g/g.
